From patent US7704995B2 (Exelixis, Inc., priority 2003, dated 2010)
Read-outs that look alike come from different tables or passages of the source.

Molecular target: T1, Chk1 (Homo sapiens, UniProt O14757)
T1 construct: purchased Upstate Biotechnology
T1 sequence (O14757 1-476): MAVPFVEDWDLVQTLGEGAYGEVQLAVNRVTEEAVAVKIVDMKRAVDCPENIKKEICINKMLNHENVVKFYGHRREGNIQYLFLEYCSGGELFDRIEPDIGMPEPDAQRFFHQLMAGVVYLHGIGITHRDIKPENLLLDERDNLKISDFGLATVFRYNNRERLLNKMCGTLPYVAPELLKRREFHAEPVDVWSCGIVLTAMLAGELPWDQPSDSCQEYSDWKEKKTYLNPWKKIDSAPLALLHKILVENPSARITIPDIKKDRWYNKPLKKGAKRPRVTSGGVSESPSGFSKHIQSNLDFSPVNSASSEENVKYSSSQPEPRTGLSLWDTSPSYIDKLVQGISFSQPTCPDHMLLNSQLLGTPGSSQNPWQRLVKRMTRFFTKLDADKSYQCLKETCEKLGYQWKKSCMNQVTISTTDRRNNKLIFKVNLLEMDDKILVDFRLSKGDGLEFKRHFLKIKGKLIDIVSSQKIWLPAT
Experiment: Chk1 kinase assay: incorporation of γ-33P ATP into immobilized myelin basic protein
Type: biochemical
Details: read-out: Chk1 IC50
Method: Chk1 and Chk2 assays were performed by measuring incorporation of γ-^33P ATP into immobilized myelin basic protein (MBP). High binding white 384 well plates (Greiner) were coated with MBP (Sigma #M-1891) by incubation of 60 ul/well of 20 μg/ml MBP in Tris-buffered saline (TBS; 50 mM Tris pH 8.0, 138 mM NaCl, 2.7 mM KCl) for 24 hours at 4° C. Plates were washed 3× with 100 μl TBS. Kinase reactions were carried out in a total volume of 34 μl in kinase buffer (5 mM Hepes pH 7.6, 15 mM NaCl, 0.01% bovine gamma globulin (Sigma #I-5506), 10 mM MgCl2, 1 mM DTT, 0.02% TritonX-100). Compound dilutions were performed in DMSO and added to assay wells to a final DMSO concentration of 1%. Each data point was measured in duplicate, and at least two duplicate assays were performed for each individual compound determination. Chk1 and Chk2 enzymes (Upstate Biotechnology) were added to final concentrations of 10 nM (Chk1) or 20 nM (Chk2). A mixture of unlabeled ATP and γ-^33P ATP was added to start the reaction (2×10^6 cpm of γ-^33P ATP per well (3000 Ci/mmole) and either 10 μM or 30 μM unlabeled ATP (for Chk1 and Chk2 assays respectively). The reaction was carried out for 1 hour at room temperature with shaking. Plates were washed 7× with TBS, followed by the addition of 50 μl/well scintillation fluid (Wallac). Plates were read using a Wallac Trilux counter. This is only one format of such assays, various other formats are possible, as known to those skilled in the art.
The above assay procedure can be used to determine the IC50 for inhibition and/or the inhibition constant Ki. The IC50 is defined as the concentration of compound required to reduce the enzyme activity by 50% under the conditions of the assay. […] The Ki for a compound may be determined from the IC50 based on three assumptions. First, only one compound molecule binds to the enzyme and there is no cooperativity. […] Third, the enzymatic rate of the enzyme-inhibitor complex is zero. The rate (i.e., compound concentration) data are fitted to the equation: […]

[1] = Table 11, Chk1 only, class symbols A-D

IC50 [1] [nM]	IC50 [nM]	SMILES	also measured
< 50		Nc1ncc(-c2cccc(C(=O)NCc3ccc4ccccc4c3)c2)nc1C(=O)N[C@H]1CCCNC1 [Example 851, 3-amino-6-(3-{[(naphthalen-2-ylmethyl)amino]carbonyl}phenyl)-N-[(3S)-piperidin-3-yl]pyrazine-2-carboxamide]	
< 50		Nc1ncc(-c2cccc(NC(=O)Cc3cccc(C(F)(F)F)c3)c2)nc1C(=O)N[C@H]1CCCNC1 [Example 976, 3-amino-N-[(3S)-piperidin-3-yl]-6-[3-({[3-(trifluoromethyl)phenyl]acetyl}amino)phenyl]pyrazine-2-carboxamide]	
< 50		Nc1ncc(-c2cccc(C(=O)NCc3ccc(Cl)c(Cl)c3)c2)nc1C(=O)N[C@H]1CCCNC1 [Example 985, 3-amino-6-[3-({[(3,4-dichlorophenyl)methyl]amino}carbonyl)phenyl]-N-[(3S)-piperidin-3-yl]pyrazine-2-carboxamide]	
< 50		Nc1ncc(-c2cccc(CNC(=O)Nc3ccc4ccccc4c3)c2)nc1C(=O)N[C@H]1CCCNC1 [Example 896]	
< 50		Nc1ncc(-c2cccc(CNC(=O)c3ccno3)c2)nc1C(=O)N[C@H]1CCCNC1 [Example 990, 3-amino-6-(3-{[(isoxazol-5-ylcarbonyl)amino]methyl}phenyl)-N-[(3S)-piperidin-3-yl]pyrazine-2-carboxamide]	
< 50		Nc1ncc(-c2cccc(CNC(=O)Nc3ccc(Br)cc3)c2)nc1C(=O)N[C@H]1CCCNC1 [Example 895]	
< 50		Nc1ncc(-c2cccc(C(=O)NCc3cc(F)cc(F)c3)c2)nc1C(=O)N[C@H]1CCCNC1 [Example 868, 3-amino-6-[3-({[(3,5-difluorophenyl)methyl]amino}carbonyl)phenyl]-N-[(3S)-piperidin-3-yl]pyrazine-2-carboxamide]	
< 50		Nc1ncc(-c2cccc(C(=O)NCc3ccccc3Cl)c2)nc1-c1nc([C@H]2CCCNC2)n[nH]1 [Example 821, 3-(5-amino-6-{3-[(3S)-piperidin-3-yl]-1H-1,2,4-triazol-5-yl}pyrazin-2-yl)-N-[(2-chlorophenyl)methyl]benzamide]	
	50 to 1000	CNC(=O)c1nc(-c2cccc(C(=O)NCc3ccccc3OC)c2)cnc1N [Example 325, 3-amino-N-methyl-6-{3-[({[2-(methyloxy)phenyl]methyl}amino)carbonyl]phenyl}pyrazine-2-carboxamide]	
< 50		Nc1ncc(-c2cccc(C(=O)NCc3ccc(F)c(F)c3)c2)nc1C(=O)N[C@H]1CCCNC1 [Example 1011, 3-amino-6-[3-({[(3,4-difluorophenyl)methyl]amino}carbonyl)phenyl]-N-[(3S)-piperidin-3-yl]pyrazine-2-carboxamide]	
	50 to 1000	CNC(=O)c1nc(-c2cccc(C(=O)NCc3ccc(C)c(F)c3)c2)cnc1N [Example 295, 3-amino-6-[3-({[(3-fluoro-4-methylphenyl)methyl]amino}carbonyl)phenyl]-N-methylpyrazine-2-carboxamide]	

Second part, the compound before the results:

SMILES	IC50 [1] [nM]	IC50 [nM]	also measured
CNC(=O)c1nc(-c2cccc(C(=O)NCC3CCCO3)c2)cnc1N (stereo not shown) [Example 170, 3-amino-N-methyl-6-(3-{[(tetrahydrofuran-2-ylmethyl)amino]carbonyl}phenyl)pyrazine-2-carboxamide]		1000 to 10000	
CNC(=O)c1nc(-c2cccc(C(=O)NCc3c(F)ccc(F)c3Cl)c2)cnc1N [Example 297, 3-amino-6-[3-({[(2-chloro-3,6-difluorophenyl)methyl]amino}carbonyl)phenyl]-N-methylpyrazine-2-carboxamide]		50 to 1000	
CCNc1ncc(-c2cccc(C(=O)NCc3ccccc3)c2)nc1C(=O)N[C@H]1CCN(CC)C1 [Example 699, 3-(ethylamino)-N-[(3S)-1-ethylpyrrolidin-3-yl]-6-(3-{[(phenylmethyl)amino]carbonyl}phenyl)pyrazine-2-carboxamide]			IC50 (Table 11, Chk1 only): ≥ 10000 nM
CNC(=O)c1nc(-c2cccc(C(=O)NCC3COc4ccccc4O3)c2)cnc1N (stereo not shown) [Example 202, 3-amino-6-(3-{[(2,3-dihydro-1,4-benzodioxin-2-ylmethyl)amino]carbonyl}phenyl)-N-methylpyrazine-2-carboxamide]		50 to 1000	
CNC(=O)c1nc(-c2cccc(C(=O)NCc3cccc(C)c3C)c2)cnc1N [Example 243, 3-amino-6-[3-({[(2,3-dimethylphenyl)methyl]amino}carbonyl)phenyl]-N-methylpyrazine-2-carboxamide]		50 to 1000	
COc1cccc(-c2n[nH]c(-c3nc(-c4cccc(CN[C@H]5CCc6ccccc65)c4)cnc3N)n2)c1 [Example 584, 5-(3-{[(1S)-2,3-dihydro-1H-inden-1-ylamino]methyl}phenyl)-3-{3-[3-(methyloxy)phenyl]-1H-1,2,4-triazol-5-yl}pyrazin-2-amine]			IC50 (Table 11, Chk1 only): 50 to 1000 nM
CNC(=O)c1nc(-c2cccc(NC(=O)Cc3ccc4c(c3)OCO4)c2)cnc1N [Example 369, 3-amino-6-{3-[(1,3-benzodioxol-5-ylacetyl)amino]phenyl}-N-methylpyrazine-2-carboxamide]		50 to 1000	
Nc1ncc(-c2cccc(CNC(=O)c3ccc(Br)cc3Cl)c2)nc1-c1nc([C@H]2CCCNC2)n[nH]1 [Example 945, N-{[3-(5-amino-6-{3-[(3S)-piperidin-3-yl]-1H-1,2,4-triazol-5-yl}pyrazin-2-yl)phenyl]methyl}-4-bromo-2-chlorobenzamide]	< 50		
Nc1ncc(-c2cccc(CN[C@H]3CCc4ccccc43)c2)nc1C(=O)N[C@H]1CCNC1 [Example 685, 3-amino-6-(3-{[(1S)-2,3-dihydro-1H-inden-1-ylamino]methyl}phenyl)-N-[(3S)-pyrrolidin-3-yl]pyrazine-2-carboxamide]			IC50 (Table 11, Chk1 only): < 50 nM
C/C(=N\n1nnc2ccccc21)c1nc(-c2cccc(C(=O)NCc3ccccc3)c2)cnc1N [Example 637, 3-{5-amino-6-[(1E)-N-1H-1,2,3-benzotriazol-1-ylethanimidoyl]pyrazin-2-yl}-N-(phenylmethyl)benzamide]			IC50 (Table 11, Chk1 only): ≥ 10000 nM
CCCCCc1ccc(C(=O)NCc2cccc(-c3cnc(N)c(C(=O)NC)n3)c2)cc1 [Example 351, 3-amino-N-methyl-6-[3-({[(4-pentylphenyl)carbonyl]amino}methyl)phenyl]pyrazine-2-carboxamide]		50 to 1000	
Nc1ncc(-c2cccc(CN[C@H]3CCc4ccccc43)c2)nc1C(=O)N[C@H]1CN2CCC1CC2 [Example 863, 3-amino-N-[(3R)-1-azabicyclo[2.2.2]oct-3-yl]-6(3-{[(1S)-2,3-dihydro-1H-inden-1-ylamino]methyl}phenyl)pyrazine-2-carboxamide]	50 to 1000		
CNC(=O)c1nc(-c2cccc(C(=O)NCc3c(F)ccc(Cl)c3F)c2)cnc1N [Example 282, 3-amino-6-[3-({[(3-chloro-2,6-difluorophenyl)methyl]amino}carbonyl)phenyl]-N-methylpyrazine-2-carboxamide]		50 to 1000	
Nc1ncc(-c2cccc(CO)c2)nc1-c1nc([C@@H]2CCCNC2)n[nH]1 [Example 724, [3-(5-amino-6{3-[(3R)-piperidin-3-yl]-1H-1,2,4-triazol-5-yl}pyrazin-2-yl)phenyl]methanol]			IC50 (Table 11, Chk1 only): 50 to 1000 nM
CNC(=O)c1nc(-c2cccc(CNC3COc4ccccc43)c2)cnc1N (stereo not shown) [Example 507, 3-amino-6-{3-[(2,3-dihydro-1-benzofuran-3-ylamino)methyl]phenyl}-N-methylpyrazine-2-carboxamide]			IC50 (Table 11, Chk1 only): 50 to 1000 nM
Nc1nccc(-c2nc(-c3cccc(C(=O)NCc4ccccc4)c3)cnc2N)n1 [Example 608, 3-[5-amino-6-(2-aminopyrimidin-4-yl)pyrazin-2-yl]-N-(phenylmethyl)benzamide]			IC50 (Table 11, Chk1 only): 1000 to 10000 nM
CNC(=O)c1nc(-c2cccc(C(=O)N[C@@H]3CCc4ccccc43)c2)cnc1N [Example 96, 3-amino-6-(3-{[(1R)-2,3-dihydro-1H-inden-1-ylamino]carbonyl}phenyl)-N-methylpyrazine-2-carboxamide]		1000 to 10000	
